This passage reports Ka and binding results from article PMC4431183 (2015).

Experiment [1] deals with HteloDNA (DNA, G4) GGGTTAGGGTTAGGGTTAGGG
Description: visible absorbance titration at 405 nm. The settings on record: 100 mM K+, 10 mM Mg2+, 2 mM Na+; 50 mM MES-LiOH pH 7.0, 2 mM NaOH, 25 °C; 12.5 µM hemin.

Experiment [2] deals with dsDNA (DNA, duplex) AGAAGAGAAAGA/TCTTTCTCTTCT
As to the kind of experiment: visible absorbance titration at 405 nm. The settings on record: 100 mM K+, 10 mM Mg2+, 2 mM Na+; 50 mM MES-LiOH pH 7.0, 2 mM NaOH, 25 °C; 12.5 µM hemin; 0–250 µM dsDNA, change too small for Ka.

For experiment [3], the system named is HteloDNA (DNA, G4) GGGTTAGGGTTAGGGTTAGGG
Description: visible absorbance titration at 424 nm. The conditions noted are these: 100 mM K+, 10 mM Mg2+; 50 mM MES-LiOH pH 7.0, 25 °C; 1.0 µM TMPyP4.

In experiment [4] the test system is dsDNA (DNA, duplex) AGAAGAGAAAGA/TCTTTCTCTTCT
Description: visible absorbance titration at 424 nm. The settings on record: 100 mM K+, 10 mM Mg2+; 50 mM MES-LiOH pH 7.0, 25 °C; 1.0 µM TMPyP4.

For the compound `C=CC1=C(C)C2=Cc3c(C=C)c(C)c4[n]3[Fe]([Cl])[n]3c(c(C)c(CCC(=O)O)c3=CC3=NC(=C4)C(C)=C3CCC(=O)O)=CC1=N2`, the Ka entry in experiment [1] is reported as “(5.5 ± 3.1) × 10^4 M^−1”. Besides, in experiment [2], the binding result is “weak”.

For the compound `C[n+]1ccc(-c2c3nc(c(-c4cc[n+](C)cc4)c4ccc([nH]4)c(-c4cc[n+](C)cc4)c4nc(c(-c5cc[n+](C)cc5)c5ccc2[nH]5)C=C4)C=C3)cc1`, the values for the Ka result in experiment [3] and in experiment [4] were “(1.2 ± 0.1) × 10^6 M^−1” and “(1.8 ± 0.6) × 10^5 M^−1”, respectively.
